In patent publication US20100069393A1, “METHOD OF TREATMENT AND AGENTS USEFUL FOR SAME” (PRANA BIOTECHNOLOGY LIMITED, priority 2006, published 2010):

Experiments:
[1] = Neurotoxicity assay: MTS viability of primary cortical neuronal cultures; type: cell-based, mouse; conditions: BL6Jx129sv, mouse, primary cortical neuronal cultures, Neuronal cells, read-out: Cytotoxicity (% viable at 1 and 10 uM); for viability at 4 days, 1 uM: test compound 1 uM; for viability at 4 days, 10 uM: test compound 10 uM
[2] = Mice plasma concentration; type: in vivo; conditions: for Mice plasma concentration: presence in plasma at one or two time points (between 30 min and 4 h); for Mice plasma concentration (single dose): one or two time points (between 30 min and 4 h)
[3] = Blood brain barrier penetration (brain:plasma ratio after IV dose); type: in vivo; conditions: nominal dose 5 mg/kg, male Swiss Outbred mice
Experimental: A bolus injection of each of the test compound (50 μL of a 3 mg/mL aqueous solution containing 40% propylene glycol and 10% ethanol) was administered by tail vein injection to male Swiss Outbred mice (5-7 weeks of age).
At 5 and 60 min post-dose (n=3 mice at each time point), blood was collected by cardiac puncture and the whole brain was removed by making an incision through the back of the skull. Mice were anaesthetised approximately 3-4 min prior to blood and brain harvest with an intraperitoneal injection of ketamine and xylazine (133 mg/kg and 10 mg/kg, respectively).
The whole brain was placed into preweighed polypropylene vials and stored at −20° C. until analysis. On the day of analysis, the whole brain was homogenised in 3 parts of water (on ice to reduce the potential for ex vivo brain degradation) and an aliquot of the brain homogenate and plasma was analysed for compound concentration by LCMS. Standards were prepared by spiking blank brain homogenate and both samples and standards were processed by adding acetonitrile to the tissue homogenate, centrifuging and injecting an aliquot of the supernatant onto the LCMS.
To ensure complete recovery of compound from the brain, brain homogenate was spiked with compound (in 50% acetonitrile:50% water) to a nominal concentration of 500 ng/mL. The concentration of compound in the supernatant was then determined by LCMS and compared to the supernatant concentration when compound was added following precipitation with acetonitrile.

[4] = Cytotoxicity: viability of M17 cells; conditions: human, M17 neuroblastoma cells, Cytotoxicity (% viable at 1 and 10 uM); for viability at 1 uM: test compound 1 uM; for viability at 10 uM: test compound 10 uM
[5] = In vivo toxicity, visual observations; conditions: 30 mg/kg, number of days

| SMILES | Mice plasma concentration [2] | B:P Ratio ([3]; 5 min post dose) | B:P Ratio ([3]; 60 min post dose) | Mice plasma concentration (single dose) [2] | viability at 4 days, 1 uM [1] [%] | viability at 4 days, 10 uM [1] [%] | viability at 1 uM [4] [%] | viability at 10 uM [4] [%] | Toxicity at 30 mg/kg [5] |
| --- | --- | --- | --- | --- | --- | --- | --- | --- | --- |
| Cn1cnc(CCNC(=O)c2ccc3c(Cl)cc(Cl)c(O)c3n2)c1 | Up to 11605 ng/mL | 0.06 | 0.20 |  | 93 | 88 | 108 | 82.6 | 10 days, none |
| O=c1c2c(Cl)cc(Cl)c(O)c2ncn1CCN1CCCC1 |  |  |  | Up to 520 ng/mL (single dose) | 104 | 91 | 104 | 101 | 14 days, 1 of 4 death |
| O=c1c2c(Cl)cc(Cl)c(O)c2ncn1N1CCOCC1 | Up to 45.2 ng/mL |  |  |  | 105 | 70 | 95.9 | 80.9 | 10 days, none |
| Cn1c(-n2cnc3c(O)c(Cl)cc(Cl)c3c2=O)nc2ccccc21 | Up to 112.4 ng/mL |  |  |  | 105 | 97 | 107 | 94.9 | 10 days, none |
| Br.CCCn1cnc2c(O)c(Cl)cc(Cl)c2c1=O | Up to 2641 ng/mL |  |  |  | 102 | 83 | 107 | 98.8 | 10 days, none |
| O=c1c2ccc(I)c(O)c2ncn1CC1CC1 | Up to 2508 ng/mL | 0.07 | 0.06 |  |  |  | 111 | 65.1 | 10 days, none |
| CCCc1cnc2c(O)c(I)ccn2c1=O | Up to 11742 ng/ml ng/mL | 0.02 | 0.03 |  |  |  | 80.8 | 47.6 | 10 days, none |
| Br.CNCc1nc2c(O)c(Cl)cc(Cl)c2c(=O)n1C | Up to 510.4 ng/mL |  |  |  |  |  | 96 | 90.6 | 10 days, none |
| CCCn1cnc2c(O)c(I)ccc2c1=S | Up to 1593 ng/ml ng/mL |  |  |  |  |  | 89.9 | 86.2 | 10 days, none |
| CCn1cnc2c(O)c(I)ccc2c1=S | Up to 400 ng/ml ng/mL |  |  |  |  |  | 85.7 | 43 | 10 days, none, 1/4 mild signs |
| O=C(NCc1ccccc1)c1cnc2c(O)cccn2c1=O | Up to 22.2 ng/mL |  |  |  |  |  | 92.7 | 97.3 | 10 days, none |
| O=c1c2c(Cl)cc(Cl)c(O)c2ncn1Cc1cn2ccccc2n1 | Up to 98.3 ng/mL |  |  |  |  |  | 109 | 98.2 | 10 days, none |
| O=c1c2c(Cl)cc(Cl)c(O)c2ncn1Cc1cccnc1 | Up to 4023.4 ng/mL |  |  |  |  |  | 106 | 95.4 | 10 days, none |
| O=c1c2c(Cl)cc(Cl)c(O)c2ncn1-c1ccc2[nH]ncc2c1 | Up to 126 ng/mL |  |  |  |  |  | 96.2 | 88.9 | 10 days, none |
| O=c1c2c(Cl)cc(Cl)c(O)c2ncn1Cc1nccs1 | Up to 441.4 ng/mL |  |  |  |  |  | 96 | 99.8 | 10 days, none |
| Cc1noc(C)c1-n1cnc2c(O)c(Cl)cc(Cl)c2c1=O | Up to 7107 ng/mL |  |  |  |  |  | 106 | 94.2 | 10 days, none |
| CCn1c(CN(C)C)nc2c(O)c(Cl)cc(Cl)c2c1=O.Cl | Up to 975.9 ng/mL |  |  |  |  |  | 99.2 | 102 | 10 days, none |
| Br.CN(C)Cc1nc2c(O)c(Cl)cc(Cl)c2c(=O)n1C | Up to 492.1 ng/mL |  |  |  |  |  | 104 | 111 | 10 days, 1 of 4 mild signs |
| O=c1c2c(Cl)cc(Cl)c(O)c2ncn1-c1ccccn1 [drawing 171] |  |  |  | Up to 142.9 ng/mL (single dose) | 95 | 81 | 101 | 80.5 | 10 days, none |

Continued, in another order:

| Mice plasma concentration [2] | B:P Ratio ([3]; 5 min post dose) | B:P Ratio ([3]; 60 min post dose) | Mice plasma concentration (single dose) [2] | SMILES | viability at 4 days, 1 uM [1] [%] | viability at 4 days, 10 uM [1] [%] | viability at 1 uM [4] [%] | viability at 10 uM [4] [%] | Toxicity at 30 mg/kg [5] |
| --- | --- | --- | --- | --- | --- | --- | --- | --- | --- |
| Up to 403 ng/mL |  |  |  | CCNCc1ccc2c(Cl)cc(Cl)c(O)c2n1.Cl | 87 | 56 | 78.3 | 44 | 10 days, none |
| Up to 1,130.6 ng/mL |  |  |  | O=c1c2c(Cl)cc(Cl)c(O)c2ncn1Nc1ccc(F)cc1F | 100 | 92 | 105 | 83.1 | 10 days, none |
| Up to 1802 ng/mL |  |  |  | CC(C)Cn1cnc2c(O)c(Cl)cc(Cl)c2c1=O | 99 | 70 | 102 | 75.6 | 10 days, none |
| Up to 8134.8 ng/mL |  |  |  | OCCN1C=Nc2c(O)c(Cl)cc(Cl)c2C1 | 107 | 96 | 115 | 119 | 10 days, none |
|  |  |  | Up to 113.2 ng/mL (single dose) | Br.CCN(CC)CCn1cnc2c(O)c(Cl)cc(Cl)c2c1=O | 107 | 77 | 100 | 70.3 | 10 days, none |
| Up to 6 ng/mL |  |  |  | O=c1c2cccc(O)c2ncn1-c1ccc(Cl)cn1 |  |  | 107 | 122 | 10 days, none |
| Up to 2181.1 ng/mL |  |  |  | O=c1c2c(Cl)cc(Cl)c(O)c2ncn1Cc1ccncc1 |  |  | 105 | 90.4 | 10 days, none |
| Up to 13214.8 ng/mL |  |  |  | Cn1ccnc1Cn1cnc2c(O)c(Cl)cc(Cl)c2c1=O |  |  | 108 | 97.6 | 10 days, none |
| Up to 1477.4 ng/mL |  |  |  | O=c1c2c(Cl)cc(Cl)c(O)c2ncn1-c1cc[nH]n1 |  |  | 126 | 115 | 10 days, none |
| Up to 1465.4 ng/mL |  |  |  | O=c1c2c(Cl)cc(Cl)c(O)c2ncn1Cc1ccn2ccnc2c1 |  |  | 105 | 105 | 10 days, none |
| Up to 382.5 ng/mL |  |  |  | Br.CN1CCCC1Cn1cnc2c(O)c(Cl)cc(Cl)c2c1=O (stereo not drawn) |  |  | 107 | 93.9 | 10 days, none |
| Up to 17008 ng/mL |  |  |  | O=C(O)CCCn1cnc2c(O)c(Cl)cc(Cl)c2c1=O |  |  | 110 | 103 | 10 days, none |
| Up to 2796 ng/mL |  |  |  | O=c1c2c(Cl)cc(Cl)c(O)c2ncn1Cc1nc2ccccc2[nH]1 |  |  | 102 | 100 | 10 days, none |
| Up to 166.1 ng/mL |  |  |  | O=c1c2c(Cl)cc(Cl)c(O)c2ncn1Cc1nc2ccccc2s1 |  |  | 111 | 80.9 | 10 days, none |
| Up to 1639.8 ng/mL |  |  |  | O=c1c2c(Cl)cc(Cl)c(O)c2ncn1CCNCc1ccncc1 |  |  | 103 | 105 | 10 days, none |
| Up to 1166.6 ng/mL |  |  |  | CN(C)Cc1nc2c(O)c(Cl)cc(Cl)c2c(=O)n1CC1CC1.Cl |  |  | 94.4 | 74.5 | 10 days, none |
| Up to 383 ng/mL |  |  |  | Br.CCC(C)n1cnc2c(O)c(Cl)cc(Cl)c2c1=O (stereo not drawn) [drawing 185] | 104 | 71 | 94.3 | 74.5 | 10 days, none |
